Laboratory results reported in patent publication US6461997B1, “Triazole sulfones having herbicidal activity” (Monsanto Technology LLC, priority 1999, dated 2002).

Experiments:
SINAR (wild mustard) = experiment: Pre-plant incorporated (PPI) herbicidal activity, cool season; type: in vivo, Sinapis arvensis; conditions: for Percent inhibition SINAR: weed, PPI application
Outline: (§1)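 Herbicidal effect is given as percent inhibition compared with untreated pots after roughly 14 days. The compound is incorporated into the cover soil layer rather than sprayed on the surface. Temperature regime is 30/21° C for warm-season and 18/13° C for cool-season species.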

[1] = system: AGSST (creeping bentgrass); experiment: as above; type: in vivo, Agrostis stolonifera; conditions: for Percent inhibition AGSST: weed, PPI application
Outline: as §1

POROL (common purslane) = experiment: Pre-emergence herbicidal activity, warm season; type: in vivo, Portulaca oleracea; conditions: GR80 = lowest tested rate (300, 100, 30, 10 g/ha) with 80% or greater inhibition; approx. 14 days after treating; 30/21° C.
Outline: (§2)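 Seeds sown in sterilised fertilised topsoil received surface-applied compound in 50:50 acetone/water, typically at 300, 100, 30 and 10 g/ha, then greenhouse-grown at 30/21° C (warm-season species) or 18/13° C (cool-season species). Percent inhibition versus untreated plants was scored at about 14 days, giving GR80; an asterisk marks activity short of 80% at the top rate.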

rice (ORYSA) = experiment: Selectivity test, PPI, warm season crop; type: in vivo, Oryza sativa; conditions: PPI application
Outline: (§3)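 Pre-plant incorporated: compound in organic solvent sprayed onto cover soil, mixed and laid over seeds; untreated soil for controls. Greenhouse after treatment: warm season 30/21° C., cool season 18/13° C. day/night. Percent inhibition versus untreated plants scored about 14 days after planting.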

[2] = system: BRAPP (broadleaf signalgrass); experiment: Pre-emergence herbicidal activity, warm season; type: in vivo, Brachiaria platyphylla; conditions: for Pre-emergence activity (GR80) BRAPP: GR80 = lowest tested rate (300, 100, 30, 10 g/ha) with 80% or greater inhibition, approx. 14 days after treating, 30/21° C.
Outline: (§4)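 Activity is expressed as the rate giving 80% inhibition, with 300, 100, 30 and 10 g/ha typically tested. An asterisk marks activity short of 80% at the top rate. Warm-season grasses were held at 30/21 °C; cool-season blackgrass and wild buckwheat at 18/13 °C; scoring at about 14 days.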

oilseed rape (BRSNS) = experiment: Selectivity test, PPI, cool season crop; type: in vivo, Brassica napus; conditions: PPI application
Outline: as §3

[3] = system: GALAP (catchweed bedstraw); experiment: Pre-emergence herbicidal activity, cool season; type: in vivo, Galium aparine; conditions: lowest tested rate with 80% or greater inhibition; rates 300, 100, 30, 10 g/ha; about 14 days
Outline: as §2

PANDI (fall panicum) = experiment: Pre-plant incorporated (PPI) herbicidal activity, warm season; type: in vivo, Panicum dichotomiflorum; conditions: for Percent inhibition PANDI: PPI application
Outline: as §1

SETFA (giant foxtail) = experiment: Pre-emergence herbicidal activity, warm season; type: in vivo, Setaria faberi; conditions: for Pre-emergence activity (GR80) SETFA: GR80 = lowest tested rate (300, 100, 30, 10 g/ha) with 80% or greater inhibition, approx. 14 days after treating, 30/21° C.
Outline: as §4

SASKR (russian thistle) = experiment: Pre-plant incorporated (PPI) herbicidal activity, cool season; type: in vivo, Salsola kali; conditions: for Percent inhibition SASKR: weed, PPI application
Outline: as §1

[4] = system: VERPE (creeping speedwell); experiment: as above; type: in vivo, Veronica persicaria; conditions: pre-plant incorporated; lowest tested rate with 80% or greater inhibition; about 14 days
Outline: as §1

[5] = pre-plant incorporated, lowest tested rate with 80% or greater inhibition, about 14 days

| SMILES | Percent inhibition SINAR (SINAR (wild mustard); 30 g/ha) [%] | Percent inhibition SINAR (SINAR (wild mustard); 100 g/ha) [%] | Percent inhibition SINAR (SINAR (wild mustard); 300 g/ha) [%] | Percent inhibition SINAR (SINAR (wild mustard); 900 g/ha) [%] | Percent inhibition AGSST ([1]; 30 g/ha) [%] | Percent inhibition AGSST ([1]; 100 g/ha) [%] | Percent inhibition AGSST ([1]; 300 g/ha) [%] | Percent inhibition AGSST ([1]; 900 g/ha) [%] | Pre-emergence activity (GR80) POROL (POROL (common purslane)) [g/ha] | Percent inhibition ORYSA (rice (ORYSA); 30 g/ha) [%] | Percent inhibition ORYSA (rice (ORYSA); 100 g/ha) [%] | Percent inhibition ORYSA (rice (ORYSA); 300 g/ha) [%] | Percent inhibition ORYSA (rice (ORYSA); 900 g/ha) [%] | Pre-emergence activity (GR80) BRAPP [2] [g/ha] | Percent inhibition BRSNS (oilseed rape (BRSNS); 30 g/ha) [%] | Percent inhibition BRSNS (oilseed rape (BRSNS); 100 g/ha) [%] | Percent inhibition BRSNS (oilseed rape (BRSNS); 300 g/ha) [%] | Percent inhibition BRSNS (oilseed rape (BRSNS); 900 g/ha) [%] | Pre-emergence activity GR80, GALAP [3] | Pre-emergence activity (GR80) SETFA (SETFA (giant foxtail)) [g/ha] | also measured |
| --- | --- | --- | --- | --- | --- | --- | --- | --- | --- | --- | --- | --- | --- | --- | --- | --- | --- | --- | --- | --- | --- |
| CCN(CC)C(=O)n1cnc(S(=O)(=O)C(F)(F)Cl)n1 [Example 3] | 100 | 100 | 100 | 100 | 100 | 100 | 100 | 100 | 100 | 0 | 0 | 20 | 70 | 100 | 100 | 100 | 100 | 100 | 100 g/ha | 100 | Percent inhibition PANDI (PANDI (fall panicum); 30 g/ha): 80%; Percent inhibition PANDI (PANDI (fall panicum); 100 g/ha): 100%; Percent inhibition PANDI (PANDI (fall panicum); 300 g/ha): 100%; Percent inhibition PANDI (PANDI (fall panicum); 900 g/ha): 100%; Percent inhibition SASKR (SASKR (russian thistle); 30 g/ha): 80%; Percent inhibition SASKR (SASKR (russian thistle); 100 g/ha): 80%; Percent inhibition SASKR (SASKR (russian thistle); 300 g/ha): 100%; Percent inhibition SASKR (SASKR (russian thistle); 900 g/ha): 100% |
| CCN(CC)C(=O)n1cnc(S(=O)(=O)C(F)(F)C(F)(F)Br)n1 [Example 4] | 95 | 100 | 100 | 100 | 100 | 100 | 100 | 100 | 100 | 0 | 0 | 0 | 20 | 300 | 80 | 100 | 100 | 100 | 100 g/ha | 30 | Percent inhibition PANDI (PANDI (fall panicum); 30 g/ha): 0%; Percent inhibition PANDI (PANDI (fall panicum); 100 g/ha): 100%; Percent inhibition PANDI (PANDI (fall panicum); 300 g/ha): 100%; Percent inhibition PANDI (PANDI (fall panicum); 900 g/ha): 100%; Percent inhibition SASKR (SASKR (russian thistle); 30 g/ha): 75%; Percent inhibition SASKR (SASKR (russian thistle); 100 g/ha): 90%; Percent inhibition SASKR (SASKR (russian thistle); 300 g/ha): 99%; Percent inhibition SASKR (SASKR (russian thistle); 900 g/ha): 100% |
| CCN(CC)C(=O)n1cnc(S(=O)(=O)C(F)(F)SC)n1 [Example 9] | 100 | 100 | 70 | 100 | 99 | 100 | 100 | 100 | 300 | 0 | 0 | 70 | 95 | 300 | 50 | 95 | 100 | 100 | [empty] | 100 | Percent inhibition PANDI (PANDI (fall panicum); 30 g/ha): 100%; Percent inhibition PANDI (PANDI (fall panicum); 100 g/ha): 100%; Percent inhibition PANDI (PANDI (fall panicum); 300 g/ha): 100%; Percent inhibition PANDI (PANDI (fall panicum); 900 g/ha): 100%; Percent inhibition SASKR (SASKR (russian thistle); 30 g/ha): 50%; Percent inhibition SASKR (SASKR (russian thistle); 100 g/ha): 100%; Percent inhibition SASKR (SASKR (russian thistle); 300 g/ha): 95%; Percent inhibition SASKR (SASKR (russian thistle); 900 g/ha): 100% |
| CCN(CC)C(=O)n1cnc(S(=O)(=O)C(F)F)n1 [Example 15, 1-(N,N-diethylcarbamoyl)-3-(difluoromethylsulfonyl)-1,2,4-triazole] | – | – | – | – | – | – | – | – | 100 | – | – | – | – | 300 | – | – | – | – | – | 100 | PPI activity GR80, SINAR (SINAR (wild mustard); [5]): 100 g/ha; PPI activity GR80, AGSST [1, 5]: 100 g/ha; inhibition at 10 g/ha (rice (ORYSA); Oryza sativa, 10 g/ha, read-out: Percent inhibition ORYSA): 0%; inhibition at 30 g/ha (rice (ORYSA); Oryza sativa, 30 g/ha, read-out: Percent inhibition ORYSA): 0%; inhibition at 100 g/ha (rice (ORYSA); Oryza sativa, 100 g/ha, read-out: Percent inhibition ORYSA): 0%; inhibition at 300 g/ha (rice (ORYSA); Oryza sativa, 300 g/ha, read-out: Percent inhibition ORYSA): 0%; inhibition at 900 g/ha (rice (ORYSA); Oryza sativa, 900 g/ha, read-out: Percent inhibition ORYSA): 0%; inhibition at 10 g/ha ([2]; Urochloa platyphylla, pre-emergence application, 10 g/ha, read-out: Percent inhibition, weed BRAPP): 0%; inhibition at 30 g/ha ([2]; Urochloa platyphylla, pre-emergence application, 30 g/ha, read-out: Percent inhibition, weed BRAPP): 0%; inhibition at 100 g/ha ([2]; Urochloa platyphylla, pre-emergence application, 100 g/ha, read-out: Percent inhibition, weed BRAPP): 40%; inhibition at 300 g/ha ([2]; Urochloa platyphylla, pre-emergence application, 300 g/ha, read-out: Percent inhibition, weed BRAPP): 50%; inhibition at 900 g/ha ([2]; Urochloa platyphylla, pre-emergence application, 900 g/ha, read-out: Percent inhibition, weed BRAPP): 85%; PPI activity GR80, PANDI (PANDI (fall panicum); [5]): 100 g/ha; inhibition at 10 g/ha (SETFA (giant foxtail); Setaria faberi, pre-emergence application, 10 g/ha, read-out: Percent inhibition, weed SETFA): 0%; inhibition at 30 g/ha (SETFA (giant foxtail); Setaria faberi, pre-emergence application, 30 g/ha, read-out: Percent inhibition, weed SETFA): 0%; inhibition at 100 g/ha (SETFA (giant foxtail); Setaria faberi, pre-emergence application, 100 g/ha, read-out: Percent inhibition, weed SETFA): 99%; inhibition at 300 g/ha (SETFA (giant foxtail); Setaria faberi, pre-emergence application, 300 g/ha, read-out: Percent inhibition, weed SETFA): 70%; inhibition at 900 g/ha (SETFA (giant foxtail); Setaria faberi, pre-emergence application, 900 g/ha, read-out: Percent inhibition, weed SETFA): 100%; PPI activity GR80, SASKR (SASKR (russian thistle); [5]): 100 g/ha; PPI activity GR80, VERPE [4]: 300 g/ha |
